This passage reports solubility and Activity results from ChEMBL document CHEMBL1129184, “Synthesis of water-soluble prodrugs of the cytotoxic agent Combretastatin A4” (Bioorg Med Chem Lett, 1996).

Data set [1] in a line: Solubility was determined. The format is physicochemical.
Data set [2] can be described thus: Percent of the mice tested that exhibited toxicity after a dose of 150 mg/kg. The format is organism-based. More on the design: dose 150 mg/kg. Particulars: mouse, in vivo.

In the case of `COc1ccc(/C=C\c2cc(OC)c(OC)c(OC)c2)cc1O.N`, the solubility (as a rule, the dissolved amount per volume that the medium holds) in data set [1] is approximately 2800 µg/mL.
As to `COc1ccc(/C=C\c2cc(OC)c(OC)c(OC)c2)cc1[O-].[K+]`, the Activity in data set [2] was 60%.
